Values quoted from earlier work, collected in patent US20060111369A1, “Synthesis, characterization and biological action of optically active isomers of floxacins” (priority 2004, published 2006).

What was measured:
[1] = effects on the CNS
[2] = according to the FDA
[3] = system: gram-negative and gram-positive bacteria; conditions: against both gram-negative and gram-positive bacteria
[4] = molecular target: IKr potassium current channel (Homo sapiens, UniProt Q12809)
IKr potassium current channel, sequence (Q12809 whole entry): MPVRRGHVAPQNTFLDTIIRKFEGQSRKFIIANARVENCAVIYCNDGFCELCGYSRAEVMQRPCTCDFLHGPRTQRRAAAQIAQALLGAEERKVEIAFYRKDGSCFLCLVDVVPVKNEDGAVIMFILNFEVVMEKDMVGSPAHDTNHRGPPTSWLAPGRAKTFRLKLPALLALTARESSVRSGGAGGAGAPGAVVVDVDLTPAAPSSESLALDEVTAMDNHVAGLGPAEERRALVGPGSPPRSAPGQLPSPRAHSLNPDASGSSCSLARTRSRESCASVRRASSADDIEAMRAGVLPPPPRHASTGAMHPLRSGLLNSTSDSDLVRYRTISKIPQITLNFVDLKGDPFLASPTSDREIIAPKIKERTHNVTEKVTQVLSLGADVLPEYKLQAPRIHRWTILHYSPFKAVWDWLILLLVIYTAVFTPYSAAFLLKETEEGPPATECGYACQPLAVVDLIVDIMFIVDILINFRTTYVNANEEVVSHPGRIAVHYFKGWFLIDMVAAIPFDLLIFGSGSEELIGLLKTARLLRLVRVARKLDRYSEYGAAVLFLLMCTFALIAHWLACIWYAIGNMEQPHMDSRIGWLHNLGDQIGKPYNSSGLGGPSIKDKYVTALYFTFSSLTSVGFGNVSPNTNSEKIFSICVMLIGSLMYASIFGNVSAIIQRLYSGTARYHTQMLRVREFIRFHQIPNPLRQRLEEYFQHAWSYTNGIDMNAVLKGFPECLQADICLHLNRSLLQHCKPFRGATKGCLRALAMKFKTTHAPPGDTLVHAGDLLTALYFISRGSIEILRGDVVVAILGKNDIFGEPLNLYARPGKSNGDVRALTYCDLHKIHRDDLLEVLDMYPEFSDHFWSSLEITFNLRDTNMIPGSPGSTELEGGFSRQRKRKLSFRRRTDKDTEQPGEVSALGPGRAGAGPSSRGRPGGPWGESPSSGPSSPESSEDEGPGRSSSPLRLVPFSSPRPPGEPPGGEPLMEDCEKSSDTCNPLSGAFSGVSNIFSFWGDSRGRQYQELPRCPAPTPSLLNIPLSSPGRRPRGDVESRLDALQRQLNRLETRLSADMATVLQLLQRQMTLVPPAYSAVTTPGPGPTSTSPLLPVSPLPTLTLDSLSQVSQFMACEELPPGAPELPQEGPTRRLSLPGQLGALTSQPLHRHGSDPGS

For `COc1cc(N)c(Cl)cc1C(=O)NC1CCNCC1OC` (centres unmarked) [Norcisapride], the “effect on QT interval (in words)” value (human, in vivo) is given as “does not”.

In the case of `CN[C@@H](C)Cc1ccccc1` [MAP, methamphetamine], the “activity of S-isomer relative to R-isomer” value [1] is listed as “approximately five”.

For `COc1c(N2CCNC(C)C2)c(F)cc2c(=O)c(C(=O)O)cn(C3CC3)c12` (centres unmarked) [gatifloxacin], the “effect on QT interval (in words)” value (human, in vivo) is listed as “prolong the QT interval”.

In the case of `CC(N)Cc1ccccc1` (centres unmarked) [AP, amphetamine], the “activity of S-isomer relative to R-isomer” value [1] is given as “approximately five”.

For `C[C@@H]1CN(c2c(F)c(N)c3c(=O)c(C(=O)O)cn(C4CC4)c3c2F)C[C@H](C)N1` [sparfloxacin], the “cardiac events per 10,000 prescriptions” value [2] is listed as 145 per 10,000 prescriptions and the “effect on QT interval (in words)” value (human, in vivo) is listed as “prolong the QT interval”.

In the case of `CC1COc2c(N3CCN(C)CC3)c(F)cc3c(=O)c(C(=O)O)cn1c23` (single isomer, unassigned; (-)) [(−)-Ofloxacin], the “activity relative to the racemate” value [3] is given as 8-128 times.

In the case of `COc1cc(N)c(Cl)cc1C(=O)NC1CCN(CCCOc2ccc(F)cc2)CC1OC` (centres unmarked) [cisapride], the “effect on QT interval (in words)” value (human, in vivo) is given as “causes QT prolongation and arrhythmias”.

For `COc1c(N2C[C@@H]3CCCN[C@@H]3C2)c(F)cc2c(=O)c(C(=O)O)cn(C3CC3)c12` [moxifloxacin], the IKr blocker strength [4] is given as “weak”, the “mean QT prolongation” value (human, in vivo) is given as 6 ms and the “outliners (QT prolongation)” value (human, in vivo) is given as 38.

For `Cc1c(F)c(N2CCNC(C)C2)cc2c1c(=O)c(C(=O)O)cn2C1CC1` (centres unmarked) [grepafloxacin], the “cardiac adverse events in clinical trials (in words)” value (clinical trials) is given as “Heart-rhythm abnormalities were observed in some patients” and the “effect on QT interval (in words)” value (human, in vivo) is given as “prolong the QT interval”.

For `C[C@H]1COc2c(N3CCN(C)CC3)c(F)cc3c(=O)c(C(=O)O)cn1c23` [levofloxacin], the “effect on QT interval (in words)” value (human, in vivo) is listed as “prolong the QT interval”.
